Test results: patent publication US10828310B2, “Reducing the risk of cardiovascular events” (Bayer Pharma Aktiengesellschaft, priority 2018, dated 2020)
Entries after “also recorded” stand apart in the source; their conditions may differ.

What was measured:
[1] = test system: patients with stable atherosclerotic vascular disease (coronary artery disease, peripheral arterial disease, or both); assay: COMPASS trial, efficacy outcomes; format: in vivo, human; conditions: for participants reported to have atrial fibrillation who had a stroke: 26 of the 392 participants with atrial fibrillation; for primary outcome event of cardiovascular death, stroke, or myocardial infarction, number of patients / primary outcome event of cardiovascular death, stroke, or myocardial infarction, percentage of patients: rivaroxaban alone 5 mg twice daily, mean follow-up 23 months; for primary outcome / major adverse cardiovascular events compared with aspirin alone (in words): compared with aspirin alone 100 mg once daily
Description: Patients were eligible if they provided written informed consent and met the criteria for coronary artery disease, peripheral arterial disease, or both. Patients with coronary artery disease who were younger than 65 years of age were also required to have documentation of atherosclerosis involving at least two vascular beds or to have at least two additional risk factors (current smoking, diabetes mellitus, an estimated glomerular filtration rate (“GFR”)<60 ml per minute, heart failure, or nonlacunar ischemic stroke≥1 month earlier). Exclusion criteria were a high bleeding risk; a recent stroke or previous hemorrhagic or lacunar stroke; severe heart failure; advanced stable kidney disease (estimated GFR<15 ml per minute); the use of dual antiplatelet therapy, anticoagulation, or other antithrombotic therapy; and noncardiovascular conditions deemed by the investigator to be associated with a poor prognosis.
Eligible participants (except those who underwent randomization 4 to 14 days after coronary-artery bypass graft (“CABG”) surgery) entered a run-in phase during which they received a rivaroxaban-matched placebo twice daily and aspirin at a dose of 100 mg once daily. The purpose of the run-in phase was to identify participants who were unwilling or unable to adhere to the trial regimen, who had adverse events, or who were otherwise not suitable for randomization. Patients who underwent randomization 4 to 14 days after CABG surgery were not required to participate in the run-in phase because thrombotic graft occlusion is most common during the first few weeks after surgery and we sought to enroll such patients promptly.
(§1) Study aspirin was enteric-coated.
(§2) Three secondary efficacy outcomes were specified: the composite of ischemic stroke, myocardial infarction, acute limb ischemia, or death from coronary heart disease; the composite of ischemic stroke, myocardial infarction, acute limb ischemia, or cardiovascular death; and death from any cause. Tertiary efficacy outcomes included individual components of the primary and secondary outcomes, as well as hospitalization for cardiovascular causes, revascularization, limb amputation, stent thrombosis, angina, heart failure, venous thromboembolism, resuscitated cardiac arrest, and a new diagnosis of cancer. The net-clinical-benefit outcome was the composite of cardiovascular death, stroke, myocardial infarction, fatal bleeding, or symptomatic bleeding into a critical organ.
All the outcome events in all randomly assigned patients that occurred between randomization and the date of stopping the trial were included in the analysis, according to the intention-to-treat principle. An early stop of both antithrombotic treatment groups for efficacy had not been anticipated, and therefore a strategy for formal testing of secondary outcomes at the interim analysis was not prespecified.
(§3) All reported P values are two-sided.

[2] = test system: patients with stable atherosclerotic vascular disease (coronary artery disease, peripheral arterial disease, or both); assay: COMPASS trial, net-clinical-benefit outcome; format: in vivo, human
Text: “Safe” for the methods disclosed herein may also be measured by the net clinical benefit of the inventive method or product compared to administration of aspirin alone. The net clinical benefit outcome consists of cardiovascular death, myocardial infarction, stroke, and fatal or critical organ bleeding.
Because the products and methods of the present invention involve medications that cause the desired reduction in the risk of myocardial infarction, stroke, or cardiovascular death yet also cause undesired bleeding, the “net clinical benefit” of the therapy is important to consider. The “net clinical benefit” composite is a positive benefit risk ratio that was derived using severe bleeding events (intracranial bleeding, fatal bleeding, and critical organ bleeding) as a component of the composite. In clinical studies, the risk of the composite net clinical benefit outcome of cardiovascular death, stroke, myocardial infarction, fatal bleeding or symptomatic bleeding into a critical organ was lower with twice-daily 2.5 mg rivaroxaban combined with once daily 100 mg aspirin (4.7%) than with aspirin alone (100 mg once daily) (5.9%), hazard ratio 0.80.
as §1, §2, §3

[3] = test system: patients with stable cardiovascular disease; conditions: in vivo; cited from earlier work
[4] = test system: patients with a recent acute coronary syndrome; conditions: background of single or dual antiplatelet therapy, cited from earlier work
[5] = test system: patients with stable atherosclerotic vascular disease (coronary artery disease, peripheral arterial disease, or both); conditions: human, in vivo, 23 months
Text: Adverse events that impact whether the inventive combinations and combination therapy are safe are adverse bleeding events that include, for example, major bleeding, minor bleeding, intracranial bleeding, and symptomatic bleeding into a critical organ. “Major bleeding” as used herein is a modification of the International Society on Thrombosis and Haemostasis (ISTH) criteria for major bleeding and includes fatal bleeding, symptomatic bleeding into a critical organ, bleeding into a surgical site requiring reoperation, and bleeding that led to hospitalization (including presentation to an acute care facility without an overnight stay). Unlike the ISTH criteria, all bleeding that led to presentation to an acute care facility or hospitalization is considered as major.
The COMPASS trial, conducted at 602 centers in 33 countries, is a double-blind, double-dummy, randomized trial using a 3-by-2 partial factorial design and involving patients with a history of stable atherosclerotic vascular disease. […]

[6] = test system: patients with stable peripheral arterial disease; conditions: in vivo; cited from earlier work
[7] = test system: patients with stable cardiovascular disease receiving single or dual antiplatelet therapy; conditions: in vivo; cited from earlier work
[8] = rivaroxaban 2.5 mg twice daily + aspirin 100 mg once daily, aspirin alone 100 mg once daily

With CC(=O)Oc1ccccc1C(=O)O [aspirin alone, acetylsalicylic acid] as the molecule, how does the “participants reported to have atrial fibrillation who had a stroke” value [1] read?
Its value is 11 participants.

What about the “deaths (death from any cause), number” value [1, 8] of the same molecule?
Its value is 378 deaths.

What about the “deaths (death from any cause), percentage” value [1, 8] of the same molecule?
Its value is 4.1%.

And the “secondary composite outcome of ischemic stroke, myocardial infarction, acute limb ischemia, or death from coronary heart disease, number of patients” value [1, 8]?
The value was 450 patients.

What about the “secondary composite outcome of ischemic stroke, myocardial infarction, acute limb ischemia, or death from coronary heart disease, percentage of patients” value [1, 8] of the same molecule?
Its value is 4.9%.

What about the “secondary outcome of ischemic stroke, myocardial infarction, acute limb ischemia, or cardiovascular death, number of patients” value [1, 8] of the same molecule?
The value was 516 patients.

And the “secondary outcome of ischemic stroke, myocardial infarction, acute limb ischemia, or cardiovascular death, percentage of patients” value [1, 8]?
Its value is 5.7%.

And the “primary outcome event of cardiovascular death, stroke, or myocardial infarction, number of patients” value [1, 8]?
Its value is 496 patients.

What about the “primary outcome event of cardiovascular death, stroke, or myocardial infarction, percentage of patients” value [1, 8] of the same molecule?
Its value is 5.4%.

What about the “composite net-clinical-benefit outcome of cardiovascular death, stroke, myocardial infarction, fatal bleeding, or symptomatic bleeding into a critical organ, number of patients” value [2, 8] of the same molecule?
The value was 534 patients.

And the “composite net-clinical-benefit outcome of cardiovascular death, stroke, myocardial infarction, fatal bleeding, or symptomatic bleeding into a critical organ, percentage of patients” value [2, 8]?
The value was 5.9%.

Which results are given for COC(=O)[C@H](c1ccccc1Cl)N1CCc2sccc2C1 [clopidogrel]?
risk of cardiovascular death or death from any cause vs aspirin [3]: no significant difference; risk of major adverse cardiovascular events vs aspirin [3]: lower risk

For O=C(NC[C@H]1CN(c2ccc(N3CCOCC3=O)cc2)C(=O)O1)c1ccc(Cl)s1 [rivaroxaban alone, 5-chloro-N-({(5S)-2-oxo-3-[4-(3-oxo-4-morpholinyl)phenyl]-1,3-oxazolidin-5-yl}methyl)-2-thiophenecarboxamide], which “rate of major adverse cardiovascular events vs placebo” value ([4]; 2.5 mg twice daily or 5 mg twice daily) is on record?
Its value is “lower rate”.

And the mortality vs placebo ([4]; 2.5 mg twice daily)?
Its mortality vs placebo is “lower mortality”.

What about the “participants reported to have atrial fibrillation who had a stroke” value [1] of the same molecule?
Its value is 8 participants.

What about the “primary outcome / major adverse cardiovascular events compared with aspirin alone (in words)” value [1] of the same molecule?
Its value is “did not show a significant difference”.

What about the “primary outcome / major adverse cardiovascular events compared with aspirin alone (in words)” value ([1]; listed as Rivaroxaban) of the same molecule?
The value was “not associated with a significant reduction”.

What about the “primary outcome / major adverse cardiovascular events compared with aspirin alone (in words)” value ([1]; listed as Rivaroxaban alone) of the same molecule?
Its value is “did not result in a significantly lower risk”.

What about the “hazard ratio for the primary outcome” value ([1]; compared with aspirin alone, stratified Cox model) of the same molecule?
Its value is 0.90.

And the “primary outcome event of cardiovascular death, stroke, or myocardial infarction, number of patients” value [1, 8]?
The value was 448 patients.

What about the “primary outcome event of cardiovascular death, stroke, or myocardial infarction, percentage of patients” value [1, 8] of the same molecule?
The value was 4.9%.

And the “net-clinical-benefit outcome compared with aspirin alone (in words)” value ([2]; rivaroxaban alone 5 mg twice daily vs aspirin alone)?
The value was “not significantly lower; also recorded: did not show a significant difference”.

What about the “hazard ratio, major bleeding events (modified ISTH criteria)” value [5] of the same molecule?
Its value is 1.51.

With CCCSc1nc(N[C@@H]2C[C@H]2c2ccc(F)c(F)c2)c2nnn([C@@H]3C[C@H](OCCO)[C@@H](O)[C@H]3O)c2n1 [ticagrelor] as the molecule, how does the “rate of major adverse cardiovascular events vs clopidogrel” value [6] read?
Its value is “did not result in a significantly lower rate”.

For CCOC(=O)N[C@@H]1CC[C@@H]2[C@@H](C1)C[C@H]1C(=O)O[C@H](C)[C@H]1[C@H]2/C=C/c1ccc(-c2cccc(F)c2)cn1 [vorapaxar], which mortality vs placebo [7] is on record?
The mortality vs placebo was “no significant between-group difference”.

And the “rate of major adverse cardiovascular events vs placebo” value [7]?
Its value is “lower rate”.

And the “rate of moderate or severe bleeding vs placebo” value [7]?
The value was “higher rate”.
